Laboratory results from patent US9492456B2, “Valomaciclovir polymorphs” (EPIPHANY BIOSCIENCES, INC., priority 2007, dated 2016).
Entries after “also recorded” stand apart in the source; their conditions may differ. Like-named read-outs stand apart in the source and are kept apart here.

What was measured:
[1] = Particle and agglomerate size by polarized light microscopy in silicone oil; type: physicochemical
Text: The particle size of the solid product of this invention can be evaluated in silicone oil using polarized light microscopy. In some embodiments, Polymorph A enriched valomaciclovir has particle size range from about 10 to about 300 microns as measured using this system.
Polarized light microscopy was used to evaluate the particle size range of the recrystallized samples in silicone oil. The particle size range is reported in Table 4 along with the powder flow data.
A Zeiss Universal microscope configured with a polarized visible light source and polarizable analyzer was used to evaluate the optical properties of the samples. Specimens were typically mounted on a microscope slide with a drop of immersion oil and a cover glass. Magnification was typically 250×. Observations of particle/crystal size and shape were recorded. The presence of birefringence was also noted.

[2] = Powder flow (Carr Index, tapped compressibility); type: physicochemical
Text: The flow characteristics of the solid products of this invention can be measured by the Carr index [Pharmaceutical Preformulation and Formulation, A practical guide from candidate selection to commercial dosage form, Mark Gibson, Ed.; Interpharm Press, 2002; pages 386-7.) By subjecting a powder to mechanical forces, resistance to powder flow can be observed. The increase in bulk density (compressibility) of a powder subjected to tapping can be used to determine the Carr index. In some embodiments, the Polymorph A enriched valomaciclovir has a Carr index value range from about 35 to about 50.
By subjecting a powder to mechanical forces, resistance to powder flow can be observed. The increase in bulk density (compressibility) of a powder subjected to tapping can be used to determine the Carr index. This index was measured for each of the four recrystallized batches and tabulated below.
Powder flow characteristics were compared using the Carr Index. By subjecting a powder to mechanical forces, resistance to powder flow can be observed. The increase in bulk density (compressibility) of a powder subjected to tapping can be used to determine the Carr index. A summary of Carr indices and qualitative flow properties are summarized below in Table 13.
Batches were sieved to <1000 microns before testing. This was necessary to remove any clumps in the samples.

[3] = Powder flow (Carr Index, tapped compressibility); type: physicochemical; conditions: visual observation
[4] = Polymorph screening study, summary of forms; type: physicochemical; conditions: Table 12 summary
Procedure: A polymorph screening study was performed on valomaciclovir active pharmaceutical ingredient. The screen entailed recrystallizing the material using solvent recrystallization, recrystallization from the melt, annealing experiments, and slurry experiments. Overall, the API was recrystallized under more than 100 different crystal growth conditions and analyzed using powder x-ray diffraction. A chemometric treatment of the x-ray data was used to categorize the samples into different groups. These groups were studied using thermal, optical, spectroscopic and other tools to elucidate which groups represent unique solid state forms of the API.
The raw diffraction data generated from the polymorph screening experiments (solvent recrystallization, recrystallization from the melt, annealing, non-competitive slurries) were initially categorized into 8 different groups using a chemometric treatment. Analyses of these different groups were used to perform additional experiments (e.g. DSC, TGA, HSM, NMR, etc.) to refine the groups identified by the chemometric treatment.

[5] = Competitive and non-competitive slurry experiments in ethanol (energy relationships); type: physicochemical
Procedure: Competitive slurry experiments were performed using mixtures (normally 50:50) of the forms in ethanol and agitating at approximately 25° C. for several days. Noncompetitive slurries were performed by agitating excess solids of one form in ethanol at room temperature. […] In both the competitive and noncompetitive slurry experiments, the solids were vacuum filtered and analyzed by XRD. The XRD patterns are used to determine if the undissolved solids had transformed into a different polymorphic form. In one case, a different polymorphic form emerged that was different than either of the two forms initially present. This indicates both original forms were metastable to the final form isolated.

[6] = test system: human varicella zoster virus (VZV); conditions: cited from earlier work
HSV-2 = conditions: cited from earlier work
Epstein-Barr virus (EBV) = conditions: cited from earlier work
HSV-I = conditions: cited from earlier work
[7] = test system: human herpesvirus-6 (HHV-6); conditions: cited from earlier work
[8] = human, multiple dosing, total daily doses of up to 6.0 g; cited from earlier work
[9] = Water solubility / lipophilicity of the API; type: physicochemical
zoster = conditions: suspension, 250, 500 and 750 mg BID for 7 days, zoster patients, acyclovir control; cited from earlier work
[10] = Table 2, earlier batches, no unit in table (microns)
[11] = Table 2, earlier valomaciclovir batches, sieved to <1000 microns

CCCCCCCCCCCCCCCCCC(=O)OC[C@@H](CCn1cnc2c(=O)[nH]c(N)nc21)COC(=O)[C@@H](N)C(C)C [Batch 12-03-018]
Agglomerate Size [1, 10]: 100 | Typical Particle Size Range [1, 10]: 5-40 | Carr Index [2, 11]: 48

CCCCCCCCCCCCCCCCCC(=O)OCC(CCOC(=O)C(N)C(C)C)Cn1cnc2c(=O)[nH]c(N)nc21 (stereo not shown) [Batch 52772-2-7]
Typical Particle Size Range ([1]; Table 4, recrystallized samples, in silicone oil, no unit in table, listed as 52772-2-7): 20-50 | Carr Index ([2]; Table 4, recrystallized samples (ethanol or SDA 3C), listed as 52772-2-7): 53

CCCCCCCCCCCCCCCCCC(=O)OCC(CCOC(=O)C(N)C(C)C)Cn1cnc2c(=O)[nH]c(N)nc21 (stereo not shown) [Batch 52772-3-17]
Typical Particle Size Range ([1]; Table 4, recrystallized samples, in silicone oil, no unit in table, listed as 52772-3-17): 10-30 | Carr Index ([2]; Table 4, recrystallized samples (ethanol or SDA 3C), listed as 52772-3-17): 56

CCCCCCCCCCCCCCCCCC(=O)OC[C@H](CCOC(=O)[C@@H](N)C(C)C)Cn1cnc2c(=O)[nH]c(N)nc21 [Batch 52772-5-8]
Typical Particle Size Range ([1]; Table 4, recrystallized samples, in silicone oil, no unit in table, listed as 52772-5-8): 35-50 | Carr Index ([2]; Table 4, recrystallized samples (ethanol or SDA 3C), listed as 52772-5-8): 44

CCCCCCCCCCCCCCCCCC(=O)OC[C@H](CCOC(=O)[C@@H](N)C(C)C)Cn1cnc2c(=O)[nH]c(N)nc21 [Batch 52772-8-10]
Typical Particle Size Range ([1]; Table 4, recrystallized samples, in silicone oil, no unit in table, listed as 52772-8-10): 150-300 | Carr Index ([2]; Table 4, recrystallized samples (ethanol or SDA 3C), listed as 52772-8-10): 38

CCCCCCCCCCCCCCCCCC(=O)OC[C@H](CCOC(=O)[C@@H](N)C(C)C)Cn1cnc2c(=O)[nH]c(N)nc21 [Batch 146756]
Agglomerate Size [1, 10]: 200 | Typical Particle Size Range [1, 10]: 5-20 | Handleability and powder flow [3]: poor handleability and poor powder flow | Flowability (in words) [2]: extremely poor flowability | Carr Index [2, 11]: 64

CCCCCCCCCCCCCCCCCC(=O)OC[C@@H](CCn1cnc2c(=O)[nH]c(N)nc21)COC(=O)[C@@H](N)C(C)C [Form A]
Description (stability class of the polymorphic form) [4]: Thermodynamically | Thermodynamic stability (in words) ([5]; from slurry experiments and thermal behaviour): most stable polymorphic form; also recorded: more thermodynamically stable than the B polymorphs; also recorded: thermodynamically stable form | Thermodynamic stability (in words) ([5]; from slurry experiments and thermal behaviour, listed as Polymorph A): thermodynamically the most stable polymorph of valomaciclovir | Relative solubility of polymorphic forms (in words) ([5]; inferred from slurry conversion / enantiotropic relationship): less soluble | Flowability (in words) ([2]; listed as Polymorph A): more flowable | Flowability (in words) ([2]; listed as Polymorph A enriched valomaciclovir): good flow characteristics

CCCCCCCCCCCCCCCCCC(=O)OCC(CCn1cnc2c(=O)[nH]c(N)nc21)COC(=O)C(N)C(C)C (stereo not shown) [Form B1]
Description (stability class of the polymorphic form) [4]: Metastable Polymorph

CCCCCCCCCCCCCCCCCC(=O)OCC(CCOC(=O)C(N)C(C)C)Cn1cnc2c(=O)[nH]c(N)nc21 (stereo not shown) [Form B2]
Description (stability class of the polymorphic form) [4]: Metastable Polymorph

CCCCCCCCCCCCCCCCCC(=O)OCC(CCn1cnc2c(=O)[nH]c(N)nc21)COC(=O)C(N)C(C)C (stereo not shown) [Form B3]
Description (stability class of the polymorphic form) [4]: Metastable Polymorph

CCCCCCCCCCCCCCCCCC(=O)OCC(CCn1cnc2c(=O)[nH]c(N)nc21)COC(=O)C(N)C(C)C (stereo not shown) [Form B4]
Description (stability class of the polymorphic form) [4]: Metastable Polymorph

Nc1nc2c(ncn2C[C@H](CO)CCO)c(=O)[nH]1 [Form H2G]
Antiviral activity (in words) [6]: potent activity | Antiviral activity (in words) (HSV-2): potent activity | Antiviral activity (in words) (Epstein-Barr virus (EBV)): potent activity | Antiviral activity (in words) (HSV-I): potent activity | Antiviral activity (in words) [7]: potent activity

CCCCCCCCCCCCCCCCCC(=O)OCC(CCn1cnc2c(=O)[nH]c(N)nc21)COC(=O)C(N)C(C)C (stereo not shown) [Form H]
Relative solubility of polymorphic forms (in words) [5]: more soluble | Thermodynamic stability (in words) [5]: less thermodynamically stable than the B polymorphs

CCCCCCCCCCCCCCCCCC(=O)OC[C@H](CCOC(=O)[C@@H](N)C(C)C)Cn1cnc2c(=O)[nH]c(N)nc21 [valomaciclovir, L-valine, (3R)-3-[(2-amino-1,6-dihydro-6-oxo-9H-purin-9-yl)methyl]-4-[(1-oxooctadecyl)oxy]butyl ester]
Safety and tolerability [8]: safe and well tolerated | Lipophilicity (in words) [9]: fairly lipophilic | Solubility in water (in words) ([9]; water): practically insoluble in water | Zoster lesion healing (zoster): proof-of-concept for zoster lesion healing
